Measurements taken from BigSolDB 2.1.

**Q.** With `CC(=O)c1c(C)c([N+](=O)[O-])c(C(C)(C)C)c([N+](=O)[O-])c1C` as the compound, how does the solubility (mole fraction) (in ethanol, 273.15 K) read?
**A.** 0.0016

**Q.** What about the solubility (mole fraction) (in ethanol, 278.15 K) of the same compound?
**A.** 0.00198

**Q.** What about the solubility (mole fraction) (in ethanol, 283.15 K) of the same compound?
**A.** 0.00241

**Q.** What about the solubility (mole fraction) (in ethanol, 288.15 K) of the same compound?
**A.** 0.00295

**Q.** What about the solubility (mole fraction) (in ethanol, 293.15 K) of the same compound?
**A.** 0.00354

**Q.** What about the solubility (mole fraction) (in ethanol, 298.15 K) of the same compound?
**A.** 0.00426

**Q.** What about the solubility (mole fraction) (in ethanol, 303.15 K) of the same compound?
**A.** 0.00512

**Q.** What about the solubility (mole fraction) (in ethanol, 308.15 K) of the same compound?
**A.** 0.00619

**Q.** And the solubility (mole fraction) (in ethanol, 313.15 K)?
**A.** 0.0074

**Q.** What about the solubility (mole fraction) (in ethyl acetate, 273.15 K) of the same compound?
**A.** 0.055

**Q.** And the solubility (mole fraction) (in ethyl acetate, 278.15 K)?
**A.** 0.0641

**Q.** What about the solubility (mole fraction) (in ethyl acetate, 283.15 K) of the same compound?
**A.** 0.0742

**Q.** And the solubility (mole fraction) (in ethyl acetate, 288.15 K)?
**A.** 0.0852

**Q.** And the solubility (mole fraction) (in ethyl acetate, 293.15 K)?
**A.** 0.0954

**Q.** And the solubility (mole fraction) (in ethyl acetate, 298.15 K)?
**A.** 0.111

**Q.** And the solubility (mole fraction) (in ethyl acetate, 303.15 K)?
**A.** 0.122

**Q.** And the solubility (mole fraction) (in ethyl acetate, 308.15 K)?
**A.** 0.139

**Q.** What about the solubility (mole fraction) (in ethyl acetate, 313.15 K) of the same compound?
**A.** 0.156

**Q.** And the solubility (mole fraction) (in methanol, 273.15 K)?
**A.** 0.00108

**Q.** What about the solubility (mole fraction) (in methanol, 278.15 K) of the same compound?
**A.** 0.00128

**Q.** What about the solubility (mole fraction) (in methanol, 283.15 K) of the same compound?
**A.** 0.00157

**Q.** And the solubility (mole fraction) (in methanol, 288.15 K)?
**A.** 0.00187

**Q.** And the solubility (mole fraction) (in methanol, 293.15 K)?
**A.** 0.00225

**Q.** And the solubility (mole fraction) (in methanol, 298.15 K)?
**A.** 0.00272

**Q.** And the solubility (mole fraction) (in methanol, 303.15 K)?
**A.** 0.00326

**Q.** And the solubility (mole fraction) (in methanol, 308.15 K)?
**A.** 0.00387

**Q.** And the solubility (mole fraction) (in methanol, 313.15 K)?
**A.** 0.00458

**Q.** What about the solubility (mole fraction) (in n-butanol, 273.15 K) of the same compound?
**A.** 0.0022

**Q.** What about the solubility (mole fraction) (in n-butanol, 278.15 K) of the same compound?
**A.** 0.00286

**Q.** What about the solubility (mole fraction) (in n-butanol, 283.15 K) of the same compound?
**A.** 0.00368

**Q.** What about the solubility (mole fraction) (in n-butanol, 288.15 K) of the same compound?
**A.** 0.00449

**Q.** And the solubility (mole fraction) (in n-butanol, 293.15 K)?
**A.** 0.00533

**Q.** And the solubility (mole fraction) (in n-butanol, 298.15 K)?
**A.** 0.00666

**Q.** And the solubility (mole fraction) (in n-butanol, 303.15 K)?
**A.** 0.00812

**Q.** What about the solubility (mole fraction) (in n-butanol, 308.15 K) of the same compound?
**A.** 0.00972

**Q.** And the solubility (mole fraction) (in n-butanol, 313.15 K)?
**A.** 0.012
